Patent publication US12171229B2, “Heteroaryl-triazole and heteroaryl-tetrazole compounds as pesticides” (BAYER AKTIENGESELLSCHAFT, priority 2018, dated 2024)

Assays:
Format in all cases: in vivo
Rhipicephalus sanguineus = Rhipicephalus sanguineus in-vitro contact test, adult brown dog ticks; conditions: 5 μg/cm^2 (=500 g/ha), after 48 hours, read-out: efficacy (ticks dead or moribund)
Experimental: Rhipicephalus Sanguineus—In-Vitro Contact Tests with Adult Brown Doe Ticks
9 mg compound is solved in 1 ml acetone and diluted with acetone to the desired concentration. 250 μl of the test solution is filled in 25 ml glass test tubes and homogeneously distributed on the inner walls by rotation and tilting on a shaking device (2 h at 30 rpm). With a compound concentration of 900 ppm, an inner surface of 44.7 cm^2 and a homogeneous distribution, a dose of 5 μg/cm^2 is achieved.
After the solvent has evaporated, each test tube is filled with 5-10 adult brown dog ticks (Rhipicephalus sanguineus), closed with a perforated lid and incubated in a lying position at room temperature and relative humidity. After 48 hours efficacy is determined. The ticks are patted on the ground of the tubes and are incubated on a heating plate at 45-50° C. for at most 5 minutes. Immotile or uncoordinated moving ticks, which are not able to escape the heat by climbing upwards, are marked as dead or moribund.
An efficacy of 100% means all ticks are dead or moribund; 0% means no ticks are dead or moribund.

Diabrotica balteata = Diabrotica balteata spray test; conditions: Diabrotica balteata, in Triticum aestivum, 168 h, after 7 days, larvae on wheat seeds, read-out: efficacy (seedlings grown up); for pest or weed control at 80 µg/disc, 250 g/ha: 80 μg/well (=250 g/ha); for pest or weed control at 160 µg/disc, 500 g/ha: 160 μg/well (=500 g/ha)
How it was run: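 Germinated wheat seeds (5 per well, 1 day on agar) sprayed with compound diluted in water containing 1000 ppm emulsifier, then infested with 10–20 D. balteata larvae. Efficacy scored after 7 days: 100% = seedlings like untreated uninfested control, 0% = no seedlings grown.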

Myzus persicae = Myzus persicae spray test; conditions: foliar, 120 h, after 5 days, Chinese cabbage leaf disks
How it was run: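 Chinese cabbage leaf disks infested with all aphid instars were sprayed with compound diluted in water containing emulsifier (1000 ppm). Mortality (%) was scored after 5 days, 100% meaning all aphids killed.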

[1] = tested on: cattle ticks (Boophilus microplus) strane Parhurst, SP-resistant; experiment: Boophilus microplus dip test; conditions: Rhipicephalus microplus, 168 h, engorged adult female cattle ticks, egg deposition after 7 days, read-out: efficacy (infertile eggs)
Experimental: Boophilus microplus—Dip Test
Test animal: cattle ticks (Boophilus microplus) strane Parhurst, SP-resistant
Solvent: dimethyl sulfoxide
To produce a suitable preparation of active compound, 10 mg of active compound are dissolved in 0.5 ml solvent, and the concentrate is diluted with water to the desired concentration.
This compound solution is pipetted into tubes. 8-10 engorged, adult, female cattle ticks (Boophilus microplus) are placed in perforated tubes. These tubes are immersed in the aqueous compound solution until the ticks are completely moistened. After the liquid has drained off, the ticks are transferred to a filter paper in a plastic tray and stored in a climate chamber.
After 7 days egg deposition of fertile eggs is monitored. Eggs where fertility is not visible are stored in a climate chamber till hatching after about 42 days. An efficacy of 100% means all eggs are infertile; 0% means all eggs are fertile.

Spodoptera frugiperda = Spodoptera frugiperda spray test; conditions: 168 h, after 7 days, larvae on maize leaf sections
How it was run: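 Caterpillars are placed on sprayed, dried maize leaf sections. Sprays contain compound diluted in water with emulsifier at 1000 ppm; mortality in % is determined 7 days later.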

Nilaparvata lugens = Nilaparvata lugens spray test; conditions: 336 h, after 14 days, rice plants
Experimental: Nilaparvata lugens—Spray Test
(§1) To produce a suitable preparation of active compound, 1 part by weight of active compound is mixed with the stated amount of solvents and is diluted with water, containing an emulsifier concentration of 1000 ppm, to the desired concentration. Further test concentrations are prepared by dilution with emulsifier containing water.
Rice plants (Oryza sativa) are sprayed with a preparation of the active ingredient of the desired concentration and the plants are infested with the brown planthopper (Nilaparvata lugens).
After 14 days mortality in % is determined. 100% means all planthoppers have been killed and 0% means none of the planthoppers have been killed.

Meloidogyne incognita = Meloidogyne incognita test; conditions: 20 ppm; after 14 days; salad seedlings
Experimental: Meloidogyne incognita—Test Solvent: 125.0 parts by weight of acetone To produce a suitable preparation of active compound, 1 part by weight of active compound is mixed with the stated amount of solvent, and the concentrate is diluted with water to the desired concentration. Vessels are filled with sand, a solution of the active ingredient, a suspension containing eggs and larvae of the southern root-knot nematode (Meloidogyne incognita) and salad seeds. The salad seeds germinate and the seedlings grow. Galls develop in the roots. After 14 days the nematicidal activity is determined on the basis of the percentage of gall formation. 100% means no galls were found and 0% means the number of galls found on the roots of the treated plants was equal to that in untreated control plants.

Tetranychus urticae = Tetranychus urticae spray test (OP-resistant); conditions: foliar, 144 h, after 6 days, French bean leaf disks
Experimental: Tetranychus urticae—Spray Test (OP-Resistant)
as §1
French bean (Phaseolus vulgaris) leaf disks infected with all instars of the two spotted spidermite (Tetranychus urticae), are sprayed with a preparation of the active ingredient of the desired concentration.
After 6 days mortality in % is determined. 100% means all spider mites have been killed and 0% means none of the spider mites have been killed.

[2] = tested on: Blattella germanica strain PAULINIA; experiment: whole plant or invertebrate; conditions: read-out: efficacy (mortality)
Experimental: Blattella Germanica Test (BLTTGE Surface Treatment & Contact Assay)
Solvent: Aceton+2000 ppm rapeseed oil methyl ester (RME)
In order to produce a sufficient, active ingredient containing solution it is necessary to solve the test compound in the solvent-mix (acetone at 2 mg/ml/RME 2000 ppm). This solution is pipetted onto a glazed tile and after evaporation of the acetone, adult animals of the species Blattella germanica strain PAULINIA are placed onto the dried surface. The exposure time is 30 minutes.
Mortality in percent (%) is determined 24 hours after contact of the insects to the treated surface. 100% mortality means that all tested insects are dead, whereas 0% means that no insect died.

Row | SMILES | pest or weed control at 5 µg/cm2 (Rhipicephalus sanguineus) | pest or weed control at 80 µg/disc, 250 g/ha (Diabrotica balteata) | mortality at 500 g/ha (Myzus persicae) | pest or weed control at 100 ppm [1] | mortality at 100 g/ha (Spodoptera frugiperda) | mortality at 500 g/ha (Spodoptera frugiperda) | pest or weed control at 160 µg/disc, 500 g/ha (Diabrotica balteata) | mortality at 100 g/ha (Myzus persicae) | mortality at 500 g/ha (Nilaparvata lugens) | nematicidal activity (gall formation) (Meloidogyne incognita) | mortality at 500 g/ha (Tetranychus urticae) | mortality at 20 mg/m2 [2]
1 | C[C@H](NC(=O)c1cc(Cl)cc(C(F)(F)F)c1)c1ncnn1-c1ccc(C#N)cn1 [Example I-009] | 100% | 100% | 90% | 100% | 100% | 100% | – | – | – | – | – | –
2 | C[C@H](NC(=O)c1cc(Cl)cc(C(F)(F)F)c1)c1ncnn1-c1ccc([N+](=O)[O-])cn1 [Example I-028] | – | 100% | – | 100% | 100% | 100% | 100% | – | – | – | – | –
3 | Cc1nc([C@H](C)NC(=O)c2cc(C(F)(F)F)cc(C(F)(F)F)c2)n(-c2ccc(C#N)cn2)n1 [Example I-056] | 100% | 100% | 90% | – | 100% | 100% | 100% | 100% | – | – | – | –
4 | C[C@H](NC(=O)c1cc(Cl)cc(Br)c1)c1ncnn1-c1ccc(C#N)cn1 [Example I-046] | – | 100% | – | 100% | 100% | 100% | 100% | – | – | – | – | –
5 | C[C@H](NC(=O)c1cc(Cl)cc(OC(F)(F)F)c1)c1ncnn1-c1ccc(C#N)cn1 [Example I-041, 3-chloro-N-{(1S)-1-[1-(5-cyanopyridin-2-yl)-1H-1,2,4-triazol-5-yl]ethyl}-5-(trifluoromethoxy)benzamide] | – | 100% | – | 100% | 100% | 100% | 100% | – | 90% | – | – | –
6 | C[C@H](NC(=O)c1cc(Cl)cc(C(F)(F)F)c1)c1ncnn1-c1ncc(Cl)cc1F [Example I-013] | – | 100% | 100% | 100% | 100% | 100% | 100% | 90% | – | 90% | – | –
7 | C[C@H](NC(=O)c1cc(Cl)cc(SC(F)(F)F)c1)c1ncnn1-c1ccc(C#N)cn1 [Example I-042] | – | 100% | – | 80% | 100% | 100% | 100% | – | – | – | 90% | –
8 | C[C@H](NC(=O)c1cc(C(F)(F)F)cc(C(F)(F)F)c1)c1ncnn1-c1ccc(C#N)cn1 [Example I-052] | 100% | 100% | 90% | – | 100% | 100% | 100% | – | – | – | – | –
9 | C[C@H](NC(=O)c1cc(Cl)cc(Cl)c1)c1ncnn1-c1ccc(C#N)cn1 [Example I-047] | – | 100% | – | 100% | 100% | 100% | 100% | – | – | – | – | –
10 | Cc1nc([C@H](C)NC(=O)c2cc(Cl)cc(C(F)(F)F)c2)n(-c2ccc(C#N)cn2)n1 [Example I-049] | 100% | 80% | 90% | 100% | 100% | 100% | 100% | 100% | 100% | – | – | –
11 | C[C@H](NC(=O)c1cc(F)cc(C#N)c1)c1ncnn1-c1ccc(C#N)cn1 [Example I-018] | – | 100% | – | – | 100% | 100% | 100% | – | – | – | – | –
12 | C[C@H](NC(=O)c1cc(Cl)cc(C(F)(F)F)c1)c1ncnn1-c1cc(C#N)ccn1 [Example I-015] | 100% | 100% | 100% | – | 100% | 100% | – | 100% | – | – | – | –
13 | C[C@H](NC(=O)c1cc(Cl)cc(C(F)(F)F)c1)c1ncnn1-c1ccc(NC(=O)C2CC2)cn1 [Example I-034, 3-chloro-N-[(1S)-1-(1-{5-[(cyclopropylcarbonyl)amino]pyridin-2-yl}-1H-1,2,4-triazol-5-yl)ethyl]-5-(trifluoromethyl)benzamide] | – | 100% | 100% | – | 100% | 100% | 100% | 100% | 100% | – | – | –
14 | CC(c1ncnn1-c1ccc(C#N)cn1)N(CC1CC1)C(=O)c1cc(Cl)cc(C(F)(F)F)c1 (stereo not drawn) [Example I-007] | – | 100% | – | 80% | 100% | 100% | 100% | – | – | – | – | 80 to 100%
15 | C[C@H](NC(=O)c1cc(Cl)cc(S(F)(F)(F)(F)F)c1)c1ncnn1-c1ccc(C#N)cn1 [Example I-048] | – | 100% | – | – | 100% | 100% | 100% | – | 100% | – | – | –
16 | C[C@H](NC(=O)c1cc(F)cc(C(F)(F)F)c1)c1ncnn1-c1ccc(C#N)cn1 [Example I-019] | – | 100% | – | 100% | 100% | 100% | 100% | – | – | – | – | –
